According to ChEMBL document CHEMBL2429714, “Synthesis and analgesic activity of monoterpenoid-derived 2-aryl-4,4,7-trimethyl-4a,5,8,8a-tetrahydro-4H-benzo[d][1,3]dioxin-8-ols” (Med Chem Res, 2013):

Columns and labels:
[1] = test system: Mus musculus; assay: Analgesic activity in albino mouse assessed as inhibition of abdominal convulsion at 10 mg/kg, po administered 1 hr prior to acetic acid challenge measured at 5 to 8 mins by acetic acid-induced writhing test relative to control; assay type: functional; conditions: Abdomen
[2] = test system: Mus musculus; assay: Analgesic activity in albino mouse assessed as protection against thermal-induced paw licking or jumping behaviour at 10 mg/kg, po administered 1 hr prior to testing by hot plate test relative to control; assay type: functional
[3] = test system: Mus musculus; assay: Analgesic activity in po dosed albino mouse assessed as protection against acetic acid-induced writhing administered 1 hr prior to prior to acetic acid challenge measured at 5 to 8 mins; assay type: functional
[4] = Toxicity in po dosed albino mouse; assay type: organism-based; conditions: in vivo

Row | SMILES | inhibition in vivo at 10 mg/kg [1] | Activity [2] | ED50 [3] | LD50 [4]
1 | CC1=CC[C@@H]2[C@@H](O[C@H](c3ccc(C(F)(F)F)cc3)OC2(C)C)[C@@H]1O | 52% | 30% | – | –
2 | CC1=CC[C@@H]2[C@@H](O[C@H](c3ccc(Cl)c(Cl)c3)OC2(C)C)[C@@H]1O | 14% | 36% | – | –
3 | CC1=CC[C@@H]2[C@@H](O[C@H](c3ccc(Cl)cc3)OC2(C)C)[C@@H]1O | 88% | 8% | 4.5 mg/kg | –
4 | CC1=CC[C@@H]2[C@@H](O[C@H](c3cccc(F)c3)OC2(C)C)[C@@H]1O | 40% | 0% | – | –
5 | O=C([O-])Cc1ccccc1Nc1c(Cl)cccc1Cl.[Na+] [DICLOFENAC SODIUM] | 90% | 64% | 5 mg/kg | –
6 | CC1=CC[C@@H]2[C@@H](O[C@H](c3ccc([N+](=O)[O-])cc3)OC2(C)C)[C@@H]1O | 65% | 84% | – | –
7 | CC1=CC[C@@H]2[C@@H](O[C@H](c3ccc(F)cc3)OC2(C)C)[C@@H]1O | 40% | 0% | – | 1000 mg/kg
8 | CC1=CC[C@@H]2[C@@H](O[C@H](c3cccc(Cl)c3)OC2(C)C)[C@@H]1O | 27% | 36% | – | –
9 | CC1=CC[C@@H]2[C@@H](O[C@H](c3cccc(Cl)c3)CC2(C)O)[C@@H]1O (mixture of isomers) | 26% | 14% | – | –
10 | CC1=CC[C@@H]2[C@@H](O[C@H](c3ccc(Br)cc3)OC2(C)C)[C@@H]1O | 33% | 33% | – | –
